Values of other authors, collected in patent US9636305B2, “Antiemetic extended release solid dosage forms” (RedHill Biopharma Ltd., priority 2013, dated 2017).

Details: scale of Pliska et al., J. Chromatog. 216, 79, 1981

Compound	hydropathy value
N[C@@H](CC(=O)O)C(=O)O [aspartic acid]	−2.15
CC[C@H](C)[C@H](N)C(=O)O [iso-leucine]	1.83
NCC(=O)O [glycine]	0
